In patent US12516064B2, “Tetrahydropyridopyrimidines and related analogs for inhibiting YAP/TAZ-TEAD” (THE KATHOLIEKE UNIVERSITEIT LEUVEN, priority 2022, dated 2026) one finds EC50 data, which are given here for 11 compounds.

Common to all, as to assay type: cell-based
Assay [1] has as its system NCI-H226. Put plainly: Mesothelioma cell line proliferation assay (NCI-H226). Particulars: Homo sapiens, 144 h; NCI-H226 cells; 6 days with compound; cell viability by ATPlite. Here is the method: (§1) Mesothelioma cell lines, NCI-H226 and NCI-H2052 (all sourced from the ATCC cell culture collection) are plated in 96-well plates (Corning® 96 Well White Polystyrene Microplate clear flat bottom, white polystyrene (TC-Treated)), at 1500 cells/well in full medium (RPMI 1640 ATCC modification with L-glutamine, HEPES, Phenol Red, Sodium Pyruvate, High glucose, Low sodium bicarbonate and 10% fetal bovine serum). Cells are incubated overnight at 37° C. in an incubator with 5% CO2. Then compounds, dissolved in DMSO, are added in dose-response. Cells are incubated with compound dilutions for another 6 days at 37° C. in an incubator with 5% CO2. Cell viability is quantitated using the ATPlite kit (Perkin-Elmer) and the luminescence is read-out using an Envision instrument (Perkin-Elmer). The amount of relative light units produced using the ATPlite kit is used to calculated percent of inhibition.
(§2) The activities of some example compounds are depicted in Table 9. The activity ranges A, B and C refer to EC50 values in the mesothelioma cell line proliferation assay as described as follows: “A”: EC50<1 μM; “B”: 1 μM≤EC50≤10 μM and “C”: EC50>10 μM; NT: not tested.
A general note: ATP-based viability assays read luminescence as a measure of living cells.

The subject of assay [2] is NCI-H2052. Briefly: Mesothelioma cell line proliferation assay (NCI-H2052). Particulars: Homo sapiens, 144 h; NCI-H2052 cells; 6 days with compound; cell viability by ATPlite. The protocol: as §1, §2
The subject of assay [3] is YAP/TAZ-TEAD transcription. Briefly: Reporter gene assay for measuring the inhibition of YAP/TAZ-TEAD transcription. Particulars: Homo sapiens, HEK-293T; Hek293T cells transiently transfected with TEAD-responsive element luciferase reporter; 24 hours incubation. The procedure, abridged: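 HEK293T cells transiently transfected with a TEAD-responsive luciferase reporter, plated onto pre-diluted compounds and incubated 24 h at 37 °C/5% CO2. Luminescence read after SteadyLite substrate; percent inhibition scaled between vehicle (0%) and positive control inhibitor (100%), giving IC50/EC50.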
Background: A reporter such as luciferase makes a cellular process visible.

Regarding `C=CC(=O)N1CCc2c(nc(-c3ccccc3)nc2-c2ccn(C(F)F)n2)C1` [Cpd. No. 65, 1-(4-(1-(difluoromethyl)-1H-pyrazol-3-yl)-2-phenyl-5,8-dihydropyrido[3,4-d]pyrimidin-7(6H)-yl)prop-2-en-1-one], the EC50 in assay [1] is 1 to 10 µM; in assay [2] it was 1 to 10 µM; in assay [3] it was < 1 µM.

In the case of `C=CC(=O)N1CCc2c(nc(Cc3cccc(C(F)(F)F)c3)nc2-c2ccn(C)n2)C1` [Cpd. No. 46, 1-(4-(1-methyl-1H-pyrazol-3-yl)-2-(3-(trifluoromethyl)benzyl)-5,8-dihydropyrido[3,4-d]pyrimidin-7(6H)-yl)prop-2-en-1-one], the EC50 is < 1 µM in assay [1], 1 to 10 µM in assay [2] and < 1 µM in assay [3].

Regarding `CC#CC(=O)N1CCc2c(nc(-c3ccc(C(F)(F)F)cc3)nc2-c2ccn(C)n2)C1` [Cpd. No. 86, 1-(4-(1-methyl-1H-pyrazol-3-yl)-2-(4-(trifluoromethyl)phenyl)-5,8-dihydropyrido[3,4-d]pyrimidin-7(6H)-yl)but-2-yn-1-one], the EC50 in assay [1], in assay [2] and in assay [3] was < 1 µM throughout.

Take `C=CC(=O)N1CCc2c(nc(-c3cccc(F)c3)nc2-c2ccn(C)n2)C1` [Cpd. No. 52, 1-(2-(3-fluorophenyl)-4-(1-methyl-1H-pyrazol-3-yl)-5,8-dihydropyrido[3,4-d]pyrimidin-7(6H)-yl)prop-2-en-1-one]: the results for the EC50 in assay [1], in assay [2] and in assay [3] were < 1 µM, 1 to 10 µM and < 1 µM, respectively.

For the compound `C=CC(=O)N1CCc2c(nc(-c3ccc(C(F)(F)F)cc3)nc2-c2ccn(C)n2)C1` [Cpd. No. 54, 1-(4-(1-methyl-1H-pyrazol-3-yl)-2-(4-(trifluoromethyl)phenyl)-5,8-dihydropyrido[3,4-d]pyrimidin-7(6H)-yl)prop-2-en-1-one], the EC50 was < 1 µM in assay [1], 1 to 10 µM in assay [2] and < 1 µM in assay [3].

For the compound `C=C(C)C(=O)N1CCc2c(nc(-c3ccc(C(F)(F)F)cc3)nc2-c2ccn(C)n2)C1` [Cpd. No. 77, 2-methyl-1-(4-(1-methyl-1H-pyrazol-3-yl)-2-(4-(trifluoromethyl)phenyl)-5,8-dihydropyrido[3,4-d]pyrimidin-7(6H)-yl)prop-2-en-1-one], the EC50 in assay [1] was < 1 µM; in assay [2], > 10 µM; in assay [3], < 1 µM.

For `C=CC(=O)N1CCc2c(nc(Cc3ccc(C(F)(F)F)cc3)nc2-c2ccn(Cc3cccnc3)n2)C1` [Cpd. No. 49, 1-(4-(1-(pyridin-3-ylmethyl)-1H-pyrazol-3-yl)-2-(4-(trifluoromethyl)benzyl)-5,8-dihydropyrido[3,4-d]pyrimidin-7(6H)-yl)prop-2-en-1-one], the EC50 in assay [1] was < 1 µM; in assay [2], > 10 µM; in assay [3], < 1 µM.

In the case of `C=CC(=O)N1CCc2c(nc(-c3ccc(C(F)(F)F)cc3)nc2-c2ccn(C(F)F)n2)C1` [Cpd. No. 69, 1-(4-(1-(difluoromethyl)-1H-pyrazol-3-yl)-2-(4-(trifluoromethyl)phenyl)-5,8-dihydropyrido[3,4-d]pyrimidin-7(6H)-yl)prop-2-en-1-one], the EC50 in assay [1] is < 1 µM; in assay [2], 1 to 10 µM; in assay [3], < 1 µM.

Regarding `C/C=C/C(=O)N1CCc2c(nc(-c3ccc(C(F)(F)F)cc3)nc2-c2ccn(C)n2)C1` [Cpd. No. 74, (E)-1-(4-(1-methyl-1H-pyrazol-3-yl)-2-(4-(trifluoromethyl)phenyl)-5,8-dihydropyrido[3,4-d]pyrimidin-7(6H)-yl)but-2-en-1-one], the EC50 was < 1 µM in assay [1], 1 to 10 µM in assay [2] and < 1 µM in assay [3].

On to `C=CC(=O)N1CCc2c(nc(Cc3ccccc3)nc2-c2ccn(C)n2)C1` [Cpd. No. 32, 1-(2-benzyl-4-(1-methyl-1H-pyrazol-3-yl)-5,8-dihydropyrido[3,4-d]pyrimidin-7(6H)-yl)prop-2-en-1-one], for which the EC50 in assay [1], in assay [2] and in assay [3] was < 1 µM in each case.

On to `C=CC(=O)N1CCc2c(nc(C3CCC(F)(F)CC3)nc2-c2ccn(C)n2)C1` [Cpd. No. 89, 1-(2-(4,4-difluorocyclohexyl)-4-(1-methyl-1H-pyrazol-3-yl)-5,8-dihydropyrido[3,4-d]pyrimidin-7(6H)-yl)prop-2-en-1-one], for which the EC50 in assay [1] is < 1 µM; in assay [2] it was > 10 µM; in assay [3], < 1 µM.

The EC50 is the concentration that produces a half-maximal response.
